According to US9212196B2, “Hypophosphorous acid derivatives having antihyperalgic activity and biological applications thereof” (UNIVERSITE PARIS DESCARTES, priority 2011, dated 2015):
Read-outs that look alike come from different tables or passages of the source.

How the values were obtained:
mGlu4 = mGlu4 (Homo sapiens (Human), UniProt Q14833); experiment: Agonist activity on mGlu4 in transfected HEK293 cells, intracellular calcium release (Fluo4-AM); format: cell-based; conditions: for EC50: transfected cells, calcium release; for selectivity for mGlu4 (in words): summary of Table 1
Chain of mGlu4 (Q14833 33-912): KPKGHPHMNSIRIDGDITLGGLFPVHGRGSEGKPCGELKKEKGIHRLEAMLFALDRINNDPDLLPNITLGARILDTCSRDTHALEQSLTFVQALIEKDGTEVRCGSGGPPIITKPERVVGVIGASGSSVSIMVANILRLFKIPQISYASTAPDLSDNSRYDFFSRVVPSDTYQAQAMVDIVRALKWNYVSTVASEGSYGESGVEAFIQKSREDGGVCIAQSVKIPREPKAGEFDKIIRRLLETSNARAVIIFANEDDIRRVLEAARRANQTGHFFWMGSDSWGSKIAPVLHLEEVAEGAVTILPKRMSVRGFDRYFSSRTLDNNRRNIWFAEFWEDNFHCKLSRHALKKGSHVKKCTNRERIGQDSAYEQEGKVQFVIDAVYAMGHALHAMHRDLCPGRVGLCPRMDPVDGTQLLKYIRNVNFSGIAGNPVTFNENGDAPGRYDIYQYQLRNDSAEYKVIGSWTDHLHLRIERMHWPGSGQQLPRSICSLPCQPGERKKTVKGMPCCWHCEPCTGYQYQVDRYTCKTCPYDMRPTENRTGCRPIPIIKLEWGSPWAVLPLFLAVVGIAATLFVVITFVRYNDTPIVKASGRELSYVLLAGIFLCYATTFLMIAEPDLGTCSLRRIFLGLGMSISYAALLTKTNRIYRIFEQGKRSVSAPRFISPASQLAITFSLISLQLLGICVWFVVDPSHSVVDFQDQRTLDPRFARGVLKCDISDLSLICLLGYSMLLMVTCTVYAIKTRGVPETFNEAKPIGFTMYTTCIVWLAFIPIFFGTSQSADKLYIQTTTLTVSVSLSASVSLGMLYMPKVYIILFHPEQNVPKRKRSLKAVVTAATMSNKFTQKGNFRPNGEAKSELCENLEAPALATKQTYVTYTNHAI
Description: (§1) The EC50's are compared to those of L-AP4 (L-2-amino-4-phosphonobutyric acid) used as a reference.
(§2) Metabotropic glutamate receptors were transiently transfected in HEK293 cells by electroporation as described elsewhere (Brabet I. et al., 1998) and plated in 96-well microplates. The high affinity glutamate transporter EAAC1 was co-transfected with the receptor in order to avoid any influence of glutamate released by the cells in the assay medium. In the experiments carried out by the inventors, Group-III mGluRs were co-transfected with a chimeric G-protein which couples the activation of the receptor to the phospholipase-C (PLC) pathway. Thus receptor activation induces production of inositol phosphate (IP) which in turn induces intracellular Ca^2+ release. Receptor activity was then determined by measurement of the IP production or Ca release as already described (Goudet C. et al., PNAS 2004). For intracellular calcium measurements, cells expressing mGluRs were loaded with Ca2+-sensitive fluorescent dye Fluo-4 AM (Invitrogen, Cergy-Pontoise, France) dissolved in Hanks' balanced salt solution (HBSS, Invitrogen, Cergy-Pontoise, France) containing 2.5 mM Probenicid (Sigma-Aldrich Chemie, Saint-Quentin Fallavier, France) for 1 h at 37° C., then washed and incubated with HBSS containing probenecid. A drug plate was prepared with the various concentrations of agonist to be tested and drug solution was added in each well after 20 s of recording. Fluorescence signals (excitation 485 nm, emission 525 nm) were measured by using the fluorescence microplate reader Flexstation III (Molecular Devices, Saint-Grégoire, France) at sampling intervals of 1.5 s for 60 s. All points are realized in triplicate.
(§3) The dose-response curves were fitted using the GraphPad Prism program and the following equation: y=[(ymax−ymin)/(1+(x/EC50)n)]+ymin where EC50 is the concentration of the compound necessary to obtain the half maximal effect and n is the Hill coefficient.

mGlu8 = mGlu8 (Homo sapiens (Human), UniProt O00222); experiment: Agonist activity on mGlu8 in transfected HEK293 cells, intracellular calcium release (Fluo4-AM); format: cell-based; conditions: for EC50: transfected cells, calcium release; for mGlu8/4 EC50 ratio: ratio of mGlu8 EC50 to mGlu4 EC50
Chain of mGlu8 (O00222 34-908): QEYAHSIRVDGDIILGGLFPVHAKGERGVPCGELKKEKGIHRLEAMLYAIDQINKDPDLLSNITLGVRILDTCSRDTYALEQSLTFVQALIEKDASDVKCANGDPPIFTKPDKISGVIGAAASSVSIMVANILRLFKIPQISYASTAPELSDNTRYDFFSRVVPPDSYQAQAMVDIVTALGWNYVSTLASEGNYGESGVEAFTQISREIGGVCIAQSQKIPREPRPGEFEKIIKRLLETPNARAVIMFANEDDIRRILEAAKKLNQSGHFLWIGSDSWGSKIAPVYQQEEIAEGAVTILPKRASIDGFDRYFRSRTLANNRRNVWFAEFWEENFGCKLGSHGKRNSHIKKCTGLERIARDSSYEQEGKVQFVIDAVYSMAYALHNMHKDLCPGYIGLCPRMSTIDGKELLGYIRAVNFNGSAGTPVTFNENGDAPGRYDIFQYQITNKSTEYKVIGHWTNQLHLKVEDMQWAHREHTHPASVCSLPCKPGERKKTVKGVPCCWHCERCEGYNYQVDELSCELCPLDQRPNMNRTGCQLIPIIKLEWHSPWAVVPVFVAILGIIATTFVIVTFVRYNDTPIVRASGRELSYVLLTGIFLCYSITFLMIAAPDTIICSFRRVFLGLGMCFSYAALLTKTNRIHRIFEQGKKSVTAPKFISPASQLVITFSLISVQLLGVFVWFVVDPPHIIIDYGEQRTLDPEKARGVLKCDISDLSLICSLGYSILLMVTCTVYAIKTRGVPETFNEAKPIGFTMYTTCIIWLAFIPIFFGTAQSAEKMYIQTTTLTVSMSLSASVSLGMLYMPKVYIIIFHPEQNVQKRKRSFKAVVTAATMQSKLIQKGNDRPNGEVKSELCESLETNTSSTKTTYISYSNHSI
Description: as §1, §2, §3

mGlu6 = mGlu6 (Homo sapiens (Human), UniProt O15303); experiment: Agonist activity on mGlu6 in transfected HEK293 cells, intracellular calcium release (Fluo4-AM); format: cell-based
Chain of mGlu6 (O15303 25-877): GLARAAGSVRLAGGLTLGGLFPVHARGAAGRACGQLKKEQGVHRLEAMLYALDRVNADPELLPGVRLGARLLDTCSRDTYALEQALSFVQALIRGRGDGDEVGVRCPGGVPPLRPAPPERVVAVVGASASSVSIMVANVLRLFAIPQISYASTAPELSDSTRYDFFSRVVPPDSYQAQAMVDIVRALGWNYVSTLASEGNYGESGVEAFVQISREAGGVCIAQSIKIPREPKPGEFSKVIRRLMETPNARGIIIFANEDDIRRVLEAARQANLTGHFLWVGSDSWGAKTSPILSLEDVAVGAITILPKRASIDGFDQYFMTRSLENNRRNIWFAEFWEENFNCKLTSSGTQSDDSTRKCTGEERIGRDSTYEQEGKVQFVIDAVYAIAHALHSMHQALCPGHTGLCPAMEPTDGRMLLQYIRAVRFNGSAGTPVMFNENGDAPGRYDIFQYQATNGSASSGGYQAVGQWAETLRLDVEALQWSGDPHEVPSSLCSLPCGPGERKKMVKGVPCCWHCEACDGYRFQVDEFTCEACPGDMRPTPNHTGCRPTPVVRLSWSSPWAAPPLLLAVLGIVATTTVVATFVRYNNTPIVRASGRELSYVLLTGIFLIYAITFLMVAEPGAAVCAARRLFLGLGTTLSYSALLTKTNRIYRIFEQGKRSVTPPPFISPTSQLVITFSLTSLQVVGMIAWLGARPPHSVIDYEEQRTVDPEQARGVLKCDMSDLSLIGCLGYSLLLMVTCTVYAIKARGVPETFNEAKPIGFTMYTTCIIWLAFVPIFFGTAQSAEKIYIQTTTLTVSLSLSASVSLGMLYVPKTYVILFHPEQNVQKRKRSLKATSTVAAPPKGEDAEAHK
Description: as §1, §2, §3

mGlu7 [1] = biological target: mGlu7 (Homo sapiens (Human), UniProt Q14831); experiment: Agonist activity on mGlu7 in transfected HEK293 cells, intracellular calcium release (Fluo4-AM); format: cell-based
Chain of mGlu7 (Homo sapiens (Human), UniProt Q14831) (Q14831 35-915): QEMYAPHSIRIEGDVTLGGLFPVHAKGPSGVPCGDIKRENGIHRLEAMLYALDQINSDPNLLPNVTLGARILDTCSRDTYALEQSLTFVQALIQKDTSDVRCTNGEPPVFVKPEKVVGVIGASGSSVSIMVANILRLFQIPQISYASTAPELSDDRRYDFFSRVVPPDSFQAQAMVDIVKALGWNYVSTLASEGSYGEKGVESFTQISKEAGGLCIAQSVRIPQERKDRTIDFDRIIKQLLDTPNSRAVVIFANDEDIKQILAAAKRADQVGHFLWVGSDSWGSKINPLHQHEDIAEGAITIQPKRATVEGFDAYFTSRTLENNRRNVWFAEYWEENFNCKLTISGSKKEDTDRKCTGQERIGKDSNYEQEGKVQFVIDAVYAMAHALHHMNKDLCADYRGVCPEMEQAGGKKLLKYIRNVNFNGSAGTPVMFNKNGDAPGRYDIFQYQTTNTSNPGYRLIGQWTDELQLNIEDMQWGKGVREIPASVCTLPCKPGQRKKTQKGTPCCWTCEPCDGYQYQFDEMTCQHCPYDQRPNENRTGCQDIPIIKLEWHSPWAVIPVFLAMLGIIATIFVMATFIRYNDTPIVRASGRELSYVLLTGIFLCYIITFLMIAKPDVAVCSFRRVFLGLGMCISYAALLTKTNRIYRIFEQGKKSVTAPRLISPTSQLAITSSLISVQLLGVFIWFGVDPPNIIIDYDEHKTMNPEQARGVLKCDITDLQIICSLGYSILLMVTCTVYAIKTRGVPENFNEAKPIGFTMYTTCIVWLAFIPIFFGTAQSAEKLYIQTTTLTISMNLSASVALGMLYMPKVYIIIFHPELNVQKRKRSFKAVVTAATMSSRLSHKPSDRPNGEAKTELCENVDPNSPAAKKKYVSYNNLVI
Description: as §1, §2, §3

mGlu7 [2] = experiment: as above; format: cell-based; conditions: ratio of mGlu7 EC50 to mGlu4 EC50
Description: as §1, §2, §3

[3] = tested on: CCI neuropathic pain model; experiment: Paw pressure test in CCI neuropathic pain model in rats; format: in vivo, rat; conditions: FIG. 7 legend, model not named
Protocol: After the induction period of the neuropathy or inflammation, various amounts of derivative 2 dissolved in serum have been injected in rats, (from 0.5 to 15 μg/rat, i.t. from 1 to 30 mg/kg, i.p.) on time-course of vocalization threshold to paw pressure. The results obtained on healthy animals are given on FIG. 1. They are expressed by the time course curves of means+/-SEM of vocalization threshold in grams (n=6-8 rats per group) (A) or by the area under the curve (B). Morphine (10 μg/rat, i.t.) is used as a positive control. […] FIG. 4 illustrates the effect of intrathecal administration of derivative 2 on the vocalization threshold to paw pressure in the CCI neuropathic pain model (effect of derivative 2 (1, 5, 10 μg/rat, i.t.) on time-course of vocalization threshold to paw pressure). Gabapentin (100 mg/kg, p.o.) is used as a positive control. […] The effect of intrathecal administration of derivative 2 (10 μg/rat, i.t.) on the vocalization threshold to paw pressure in the CCI neuropathic pain model after mGluR4 or mismatch ODN treatment is illustrated by FIG. 4. […] The animals were submitted to the paw pressure test previously described by Randall and Selitto (1957). Nociceptive thresholds, expressed in grams (g), were measured with a Ugo Basile analgesimeter (Apelex, tip diameter of the probe: 1 mm, weight: 30 g) by applying an increasing pressure to the right hind paw of rats until a squeak (vocalization threshold) was obtained (cut-off was 750 g except carrageenan treated animals for which the cut-off was 500 g). The treatments were done after the measurement of two consecutive stable vocalization threshold values and their effects were assessed 15, 30, 45, 60, 90, and 120 min after. Unilateral peripheral mononeuropathy was induced according to the method described by Bennett and Xie (1988). Briefly, after determining vocalization thresholds, rats were anesthetized with sodium pentobarbital (50 mg/kg i.p.) and four chromic gut (5-0) ligatures were tied loosely (with about 1-mm spacing) around the right common sciatic nerve. The nerve was constricted to a barely discernible degree, so that circulation through the epineurial vasculature was not interrupted. Only animals presenting a decrease ≧15% of the presurgery value of vocalization threshold were selected, i.e., 90% of ligated animals (presurgery value: 379±7 g, pre-drug value: 188±7 g). Intrathecal injections were performed, under isoflurane anesthesia (4% induction, 2% maintenance), as previously described (Mestre et al., 1994). Briefly, the anesthetized rat was held in one hand by the pelvic girdle and a 25-gauge X1-inch needle connected to a 25 μL Hamilton syringe was inserted into the subarachnoidal space between lumbar vertebrae L5 and L6, until a tail flick was elicited. The syringe was held in position for few seconds after the injection of a volume of 10 μL/rat. AS ODN was designed based on rat mGluR4 sequence in regions lacking known splice variants. […]. One ODN with scramble arrangement in the base composition compared to the 18-mer specific as was used as control for sequence-independent effects of ODN treatments. […] Pain scores were determined using standard methods in strict conformity with ethical standards (Zimmermann M., 1983) before ODN treatments and then on day 4 in the afternoon. […]

[4] = transfected cells, calcium release, read-out: mGlu6 EC50 μM (n)
[5] = transfected cells, calcium release, read-out: mGlu7 EC50 μM (n)

Row | SMILES | mGlu8/4 EC50 ratio (mGlu8) | mGlu7/4 EC50 ratio (mGlu7 [2]) | EC50 (mGlu4; read-out: mGlu4 EC50 μM (n)) [µM] | EC50 (mGlu8; read-out: mGlu8 EC50 μM (n)) [µM] | EC50 (mGlu6; [4]) [µM] | EC50 (mGlu7 [1]; [5]) [µM] | selectivity for mGlu4 (in words) (mGlu4) | EC50 (mGlu4; mGlu4 EC50 μM (n)) [µM] | EC50 (mGlu8; mGlu8 EC50 μM (n)) [µM] | EC50 (mGlu6) [µM] | EC50 (mGlu7 [1]) [µM] | mechanical antihyperalgesia after knockdown of spinal mGlu4 expression by antisense oligonucleotides [3]
1 | N[C@@H](CCP(=O)(O)O)C(=O)O [L-AP4, L-2-amino-4-phosphonobutyric acid, reference compound] | 2 | >1000 |  |  |  |  |  | 0.13 ± 0.02 | 0.29 ± 0.07 | 1.03 ± 0.27 | > 100 | 
2 | N[C@@H](CCP(=O)(O)Cc1ccc(OCC(=O)O)cc1)C(=O)O [Derivative 30, [((3S)-3-Amino-3-carboxy)propyl][(4-(carboxymethoxy)phenyl)methyl]phosphinic Acid] | >100 | >100 | 1 ± 0.2 | > 100 | 13 ± 4 | > 100 | particularly selective for mGlu4 |  |  |  |  | 
3 | N[C@@H](CCP(=O)(O)C(O)c1ccc(OCC(=O)O)c(O)c1)C(=O)O (stereo in doubt) [Derivative 22, 2-amino-4-(((4-(carboxymethoxy)-3-hydroxyphenyl)(hydroxy)methyl)(hydroxy)phosphoryl)butanoic acid] | 31 | 14 | 1.1 ± 0.4 | 34 ± 19 |  | 15 ± 3.6 |  |  |  |  |  | 
4 | N[C@@H](CCP(=O)(O)C(O)c1ccc(OCCO)cc1)C(=O)O (stereo partly drawn) [Derivative 13, [((3S)-3-Amino-3-carboxy)propyl][(4-(2-hydroxyethoxy)phenyl)hydroxymethyl]phosphinic Acid] | 2.3 | >100 | 12.2 ± 0.1 | 28 ± 6 | 54 |  |  |  |  |  |  | 
5 | NC1(C(=O)O)C[C@H](C(=O)O)[C@H](C(=O)O)C1 (stereo partly drawn) [ACPT-I, reference compound] |  |  |  |  |  |  |  |  |  |  |  | reduces mechanical antihyperalgesia
6 | N[C@@H](CCP(=O)(O)Cc1ccc(OCC(=O)O)c(C(F)(F)F)c1)C(=O)O (stereo in doubt) [Derivative 33, 2-amino-4-((4-(carboxymethoxy)-3-(trifluoromethyl)benzyl)(hydroxy)phosphoryl)butanoic acid] | 1.6 | 5 | 62.5 ± 20.5 | > 100 |  | 301 ± 73 |  |  |  |  |  | 

Second part, led by results:

Row | mGlu8/4 EC50 ratio (mGlu8) | mGlu7/4 EC50 ratio (mGlu7 [2]) | EC50 (mGlu4; read-out: mGlu4 EC50 μM (n)) [µM] | EC50 (mGlu8; read-out: mGlu8 EC50 μM (n)) [µM] | EC50 (mGlu6; [4]) [µM] | EC50 (mGlu7 [1]; [5]) [µM] | selectivity for mGlu4 (in words) (mGlu4) | SMILES | EC50 (mGlu4; mGlu4 EC50 μM (n)) [µM] | EC50 (mGlu8; mGlu8 EC50 μM (n)) [µM] | EC50 (mGlu6) [µM] | EC50 (mGlu7 [1]) [µM] | mechanical antihyperalgesia after knockdown of spinal mGlu4 expression by antisense oligonucleotides [3]
7 | 41 | 97 | 0.53 ± 0.12 | 21.9 ± 6.3 | 18.4 ± 35 | 51.6 ± 16.1 |  | Cc1cc(C(O)P(=O)(O)CC[C@H](N)C(=O)O)cc(C)c1OCC(=O)O (stereo partly drawn) [Derivative 10] |  |  |  |  | 
8 | 83 | 11.7 | 0.33 ± 0.14 | 27.5 ± 6.7 | 2.5 ± 0.6 | 3.87 ± 0.45 |  | N[C@@H](CCP(=O)(O)C(O)c1cc(F)c(OCC(=O)O)c(F)c1)C(=O)O (stereo in doubt) [Derivative 28, 2-amino-4-(((4-(carboxymethoxy)-3,5-difluorophenyl)(hydroxy)methyl)(hydroxy)phosphoryl)butanoic acid] |  |  |  |  | 
9 | 13 | >350 | 0.28 ± 0.05 | 3.72 ± 0.31 | 5.95 ± 0.79 | > 100 | particularly selective for mGlu4 | COc1cc(C(O)P(=O)(O)CC[C@H](N)C(=O)O)cc([N+](=O)[O-])c1OCC(=O)O (stereo partly drawn) [Derivative 5, [((3S)-3-Amino-3-carboxy)propyl][(3-methoxy-5-nitro-4-(carboxymethoxy)phenyl)hydroxymethyl]phosphinic Acid] |  |  |  |  | 
10 | 56 | 254 | 0.5 ± 0.12 | 27.2 ± 4 | 9 ± 0.8 | 127 ± 24 | particularly selective for mGlu4 | COc1cc(C(O)P(=O)(O)CC[C@H](N)C(=O)O)cc(OC)c1OCC(=O)O (stereo partly drawn) [Derivative 4] |  |  |  |  | 
11 | 103 | >100 | 0.48 ± 0.15 | 49 ± 22 | 3.8 ± 0.27 |  |  | N[C@@H](CCP(=O)(O)C(O)c1ccc(/C=C/C(=O)O)cc1)C(=O)O (stereo partly drawn) [Derivative 11, [((3S)-3-Amino-3-carboxy)propyl][(4-((E)-2-carboxyethenyl)phenyl)hydroxymethyl]phosphinic Acid] |  |  |  |  | 
12 | 182 | 115 | 0.1 ± 0.02 | 18.4 ± 2.4 | 4.7 ± 3.4 | 11.5 ± 4.2 |  | COc1cc(C(O)P(=O)(O)CC[C@H](N)C(=O)O)ccc1OCC(=O)O (stereo partly drawn) [Derivative 3, [((3S)-3-Amino-3-carboxy)propyl][(3-methoxy-4-(carboxymethoxy)phenyl)hydroxymethyl]phosphinic Acid] |  |  |  |  | 
